Assay: Storage stability test of blend formulation (α-lipoic acid content)
Format: physicochemical
Settings: absence of air and light
Method: First, a blend formulation of the following composition was produced: […]
50 g of creatine monohydrate; 20 g of citric acid; 5.0 g of sodium carbonate; 15 g of sodium bicarbonate; 5.0 g of lemon aroma; 0.5 g of aspartame; 0.5 g of acesulfame K; 4.0 g of magnesium hydroxide
To this blend were added 0.2% by weight of α-lipoic acid and 1.67% by weight of a racemic α-lipoic acid/α-cyclodextrin complex, respectively. The preparations obtained in each case were packaged in the absence of air and light and stored at 20° C. and 40° C.

O=C(O)CCCCC1CCSS1 (racemic) [ALA, 1,2-dithiacyclopentane-3-valeric acid]
α-Lipoic acid content of the blend (20° C., 1 month): 0.19 % by weight
α-Lipoic acid content of the blend (20° C., 2 months): 0.17 % by weight
α-Lipoic acid content of the blend (20° C., 3 months): 0.16 % by weight
α-Lipoic acid content of the blend (20° C., 6 months): 0.14 % by weight
α-Lipoic acid content of the blend (20° C., 9 months): 0.12 % by weight
α-Lipoic acid content of the blend (20° C., 12 months): 0.1 % by weight
α-Lipoic acid content of the blend (40° C., 1 month): 0.16 % by weight
α-Lipoic acid content of the blend (40° C., 2 months): 0.11 % by weight
α-Lipoic acid content of the blend (40° C., 3 months): 0.09 % by weight
α-Lipoic acid content of the blend (40° C., 6 months): 0.06 % by weight
α-Lipoic acid content of the blend (40° C., 9 months): 0.03 % by weight
α-Lipoic acid content of the blend (40° C., 12 months): 0 % by weight

From US20080020995A1, “Use of Cyclodextrin Complexes Containing Lipoic Acid” (priority 2004, published 2008)
